Molecules are shown by their SMILES. Values after ≈ are worked out from the molar mass of the structure shown. Where a name gives a salt, the structure may show the parent alone. Read-outs that look alike come from different tables or passages of the source.

In general, MIC refers to the lowest concentration that inhibits growth of the organism.

Assay type in all cases: cell-based
In experiment [1] the test system is Candida albicans (SC5314). Put plainly: MIC/MFC experiments (EUCAST based), Candida albicans. Conditions: SC5314, 48 h. The procedure:
(§1) All minimum inhibitory concentration (MIC) experiments were based on EUCAST methodology. […] After 6-hour incubation, yeast cells were washed in 1×PBS and quantified using a hemocytometer. […] Cryptococcus neoformans cells were incubated for 2 days at 30° C. while Candida albicans strains were incubated for 2 days at 35° C. OD600 readings were used to assess the MIC values for each drug. To determine minimum fungicidal concentrations (MFC) values, 3 μL per well were plated on YPD and allowed to grow for 2 days.

For experiment [2], the system named is Cryptococcus neoformans (JEC21). Description: MIC/MFC experiments (EUCAST based), JEC21. Conditions: 48 h; for MFC: Cryptococcus neoformans. The procedure:
as §1

Experiment [3] deals with Aspergillus Fumigatus (AF293). Description: Aspergillus fumigatus MIC on conidia. Conditions: for MIC: Aspergillus fumigatus; for Ability to inhibit Aspergillus fumigatus: testing performed on conidia. The procedure:
Conidia at a final concentration of 2×10^4 cells were incubated in RPMI, 0.33 M MOPS, and 2% glucose at pH 7 at varying concentrations of inhibitors, with a final volume of 200 μL.

The test system of experiment [4] is Cryptococcus neoformans yeast replication. Conditions: signal relative to negative control. The source says: (§2) To identify inhibitors of Cryptococcus neoformans spore germination, a high throughput screen was developed that utilizes a nanoluciferase construct to monitor whether spores germinate in the presence of inhibitor. Briefly a protein luciferase construct was created resulting in a low luciferase signal for non-germinated spores and a high signal from germinated and replicating cells. The screen was coupled with OD600 readings to monitor the ability of compounds to inhibit yeast replication. The examples focused on FDA-approved drugs, as these drugs have the potential of being repurposed into antifungal therapeutics. To determine whether any FDA-approved drugs were able to inhibit Cryptococcus neoformans spore germination and yeast replication, the aforementioned high throughput screen was performed on the L1300 Selleck FDA-Approved Drug Library containing an array of 1108 compounds. This library of compounds is available commercially from Selleck Chemicals, 14408 W Sylvanfield Drive, Houston, Tex. 77014, USA.
(§3) The screening was successful at identifying known antifungal drugs as inhibitors of yeast replication as indicated by an OD600 signal of less than 75% of the negative control (Table 2). For the purpose of these examples, antifungal drugs were defined as any FDA-approved drug used in the treatment of fungal infections. Of these 23 known antifungal drugs, only six (6) were identified as inhibitors of spore germination, indicated by a luciferase signal of less than 30% of the negative control.

For experiment [5], the system named is Cryptococcus neoformans spores (JEC20 x JEC21). Description: Quantitative germination assay (microfluidic devices, cell size and shape). The settings on record: for Inhibition of spore germination: 16 hours; for Germicidal: plated on YPD after the 16-hour experiment; for Inhibition of spore germination, antifungal drugs: concentration not given, bifonazole and econazole nitrate tested outside the microfluidic device, imaged at 0 and 16 hours; for Spore escape from inhibition (words): yeast population increase = escape. The procedure:
All germination assays are based on Barkal et al., 2016. Briefly, microfluidic devices were loaded with 1×10^5 spores, and at 0 hours, SD media with drug of interest, were added to the sample. Spores were allowed to germinated at 30° C. in a humidified chamber and cells were monitored every two (2) hours for 16 hours. Each assay was performed in two (2) individual wells with three (3) field of views acquired from each well. All images were analyzed as previously described based on cell shape and size. Population ratio of spores, intermediate, and yeast cells were determined. Error bars in plots are based on variation between all fields of view acquired. […] After the 16-hour experiment, samples were plated on YPD and allowed to grow at 30° C. to determine if drugs were completely germicidal or not based on lack of growth. If assays were unable to be performed in microfluidic devices, the […] spores were incubated in identical conditions outside of PDMS devices and only loaded into devices for image acquisition.

Experiment [6] has as its system Cryptococcus neoformans spore germination. Description: High throughput nanoluciferase screen of spore germination (L1300 Selleck FDA-Approved Drug Library). Conditions: signal relative to negative control.
Excerpt: as §2, §3

Experiment [7] relates to Cryptococcus neoformans (H99). Put plainly: MIC/MFC experiments (EUCAST based), H99. Conditions: 48 h; for MFC: Cryptococcus neoformans. The procedure: as §1
[8] abbreviates: Table 5, 2 days at 35° C., OD600, read-out: MIC.
Setting [9] is: Table 5, plated on YPD, 2 days, read-out: MFC.
[10] abbreviates: Table 5, yeast, 2 days at 30° C., OD600, read-out: MIC.
The mark [11] stands for this setting: Table 5, conidia, lowest concentration with complete absence of germ tubes or hyphae, read-out: MIC.
Setting [12] is: Table 3, other FDA-approved drugs.
[13] abbreviates: Table 4, 2 days at 35° C., OD600, read-out: MIC.
The mark [14] stands for this setting: Table 4, plated on YPD, 2 days, read-out: MFC.
[15] abbreviates: Table 4, yeast, 2 days at 30° C., OD600, read-out: MIC.
The mark [16] stands for this setting: Table 4, conidia, lowest concentration with complete absence of germ tubes or hyphae, read-out: MIC.
The mark [17] stands for this setting: Table 2, antifungal drugs, less than 75% = inhibitor of yeast replication.
The mark [18] stands for this setting: Table 2, antifungal drugs, less than 30% = inhibitor of germination.

As to `CCCCC(CC)CNC(=N)NC(=N)NCCCCCCNC(=N)NC(=N)NCC(CC)CCCC` (stereo not shown) [Alexidine HCl], the MIC in experiment [1] (setting [8]), in experiment [2] (setting [10]), in experiment [3] (setting [11]) and in experiment [7] (setting [10]) was less than 0.78 µg/mL in each case. The MFC in experiment [1] (setting [9]), in experiment [2] (setting [9]) and in experiment [7] (setting [9]) was less than 0.78 µg/mL each time. Besides, the “Ability to inhibit Aspergillus fumigatus” value in experiment [3] is “extremely potent”. In experiment [4] (setting [12]), the “Replication Percent OD600” value was 29.6%. Moreover, the “Inhibition of spore germination” value in experiment [5] (25 μg/mL) was “completely inhibit spore germination”. Besides, the “Germicidal” value in experiment [5] (25 μg/mL) is listed as “fully germicidal”. In experiment [6] (setting [12]), the “Germination Percent Luciferase Signal” value turned out to be 4.6%.

Take `c1ccc(-c2ccc(C(c3ccccc3)n3ccnc3)cc2)cc1` (stereo not shown) [Bifonazole]: the MIC was more than 100 µg/mL in experiment [1] (setting [13]), 6.25 µg/mL (≈ 20.1 µM) in experiment [2] (setting [15]), more than 100 µg/mL in experiment [3] (setting [16]) and 6.25 µg/mL (≈ 20.1 µM) in experiment [7] (setting [15]). In addition, the figures for the MFC in experiment [1] (setting [14]), in experiment [2] (setting [14]) and in experiment [7] (setting [14]) were more than 100 µg/mL, 6.25 µg/mL (≈ 20.1 µM) and more than 100 µg/mL, respectively. Further, in experiment [3], the “Ability to inhibit Aspergillus fumigatus” value is “unable to inhibit”. Further, the “Replication Percent OD600” value in experiment [4] (setting [17]) is 33.4%. Further, in experiment [5], the “Inhibition of spore germination, antifungal drugs” value (from here on “Inhibition … antifungal drugs”) is reported as “able to inhibit spore germination effectively”. Moreover, the “Spore escape from inhibition (words)” value in experiment [5] was “spore escape apparent”. In experiment [6] (setting [18]), the “Germination Percent Luciferase Signal” value turned out to be 13.6%.

Turning to `CCN(CC)C(=S)SSC(=S)N(CC)CC` [Disulfiram], the results for the MFC in experiment [1], in experiment [2] and in experiment [7] were 12.5 µg/mL (≈ 42.2 µM), 3.13 µg/mL (≈ 10.6 µM) and 6.25 µg/mL (≈ 21.1 µM), respectively. For the same compound, the MIC is 6.25 µg/mL (≈ 21.1 µM) in experiment [1], 3.13 µg/mL (≈ 10.6 µM) in experiment [2], 25 µg/mL (≈ 84.3 µM) in experiment [3] and 6.25 µg/mL (≈ 21.1 µM) in experiment [7]. The “Replication Percent OD600” value in experiment [4] (setting [12]) came to 65.6%. Besides, the “Stall in germination overall” value in experiment [5] (25 μg/mL) was approximately 2 h. For the same compound, in experiment [6] (setting [12]), the “Germination Percent Luciferase Signal” value was determined as 22.7%.

Turning to `Clc1ccc(COC(Cn2ccnc2)c2ccc(Cl)cc2Cl)cc1` (stereo not shown) [Econazole nitrate], the minimal inhibitory concentration (MIC) is 6.25 µg/mL in experiment [1] (setting [13]), less than 0.78 µg/mL in experiment [2] (setting [15]), 3.13 µg/mL in experiment [3] (setting [16]) and less than 0.78 µg/mL in experiment [7] (setting [15]). For the same compound, the MFC in experiment [1] (setting [14]) was 12.5 µg/mL; in experiment [2] (setting [14]), 6.25 µg/mL; in experiment [7] (setting [14]), 6.25 µg/mL. For the same compound, in experiment [3], the “Ability to inhibit Aspergillus fumigatus” value is “able to inhibit its growth”. Moreover, the “Replication Percent OD600” value in experiment [4] (setting [17]) amounted to 33.1%. In experiment [5], the “Inhibition … antifungal drugs” value is given as “able to inhibit spore germination effectively”. Moreover, the “Germination Percent Luciferase Signal” value in experiment [6] (setting [18]) is 16.1%.

In the case of `O=C(Nc1ccc([N+](=O)[O-])cc1Cl)c1cc(Cl)ccc1O` [Niclosamide], the MIC in experiment [1] (setting [8]) is more than 100 µg/mL; in experiment [2] (setting [10]) it was less than 0.78 µg/mL; in experiment [3] (setting [11]), more than 100 µg/mL; in experiment [7] (setting [10]) it was 1.56 µg/mL (≈ 4.77 µM). Further, the MFC is more than 100 µg/mL in experiment [1] (setting [9]), 1.56 µg/mL (≈ 4.77 µM) in experiment [2] (setting [9]) and more than 100 µg/mL in experiment [7] (setting [9]). Moreover, the “Replication Percent OD600” value in experiment [4] (setting [12]) was found to be 43.4%. The “Inhibition of spore germination” value in experiment [5] (25 μg/mL) was “completely inhibit germination”. In experiment [5] (25 μg/mL), the “Germicidal” value was “not fully germicidal”. Also, the “Germination Percent Luciferase Signal” value in experiment [6] (setting [12]) worked out at 7.8%.

Regarding `CCCCCCCCOc1ccccc1C(=O)Nc1ccc(C(=O)OCC[N+](C)(CC)CC)cc1` [Otilonium bromide], the MIC in experiment [1] (setting [8]) was 3.13 µg/mL; in experiment [2] (setting [10]), 3.13 µg/mL; in experiment [3] (setting [11]), 6.25 µg/mL; in experiment [7] (setting [10]) it was 3.13 µg/mL. The MFC in experiment [1] (setting [9]), in experiment [2] (setting [9]) and in experiment [7] (setting [9]) was 3.13 µg/mL each time. Also, the “Ability to inhibit Aspergillus fumigatus” value in experiment [3] was “able to inhibit A. fumigatus”. In experiment [4] (setting [12]), the “Replication Percent OD600” value was 29.0%. In experiment [5] (25 μg/mL), the “Inhibition of spore germination” value is “completely inhibit spore germination”. For the same compound, the “Germicidal” value in experiment [5] (25 μg/mL) is reported as “fully germicidal”. Also, in experiment [6] (setting [12]), the “Germination Percent Luciferase Signal” value is recorded as 6.9%.

Take `N=C(N)c1ccc(OCCCCCOc2ccc(C(=N)N)cc2)cc1` [Pentamidine isethionate]: the MIC in experiment [1] (setting [13]) is 50 µg/mL; in experiment [2] (setting [15]), 1.56 µg/mL; in experiment [3] (setting [16]), more than 100 µg/mL; in experiment [7] (setting [15]), 6.25 µg/mL. Besides, the figures for the MFC in experiment [1] (setting [14]), in experiment [2] (setting [14]) and in experiment [7] (setting [14]) were 50 µg/mL, 3.13 µg/mL and 6.25 µg/mL, respectively. For the same compound, the “Inhibition … antifungal drugs” value in experiment [5] is “able to successfully inhibit spore germination”. Moreover, in experiment [5], the “Spore escape from inhibition (words)” value is “none of the ˜10,000 spores showed inherent resistance and escape from inhibition”.

Consider `CO[C@H]1C[C@@H]2CC[C@@H](C)[C@@](O)(O2)C(=O)C(=O)N2CCCC[C@H]2C(=O)O[C@H]([C@H](C)C[C@@H]2CC[C@@H](OC(=O)C(C)(CO)CO)[C@H](OC)C2)CC(=O)[C@H](C)/C=C(\C)[C@@H](O)[C@@H](OC)C(=O)[C@H](C)C[C@H](C)/C=C/C=C/C=C/1C` [Temsirolimus], for which the MIC was 1.56 µg/mL (≈ 1.51 µM) in experiment [1] (setting [8]), 6.25 µg/mL (≈ 6.07 µM) in experiment [2] (setting [10]), more than 100 µg/mL in experiment [3] (setting [11]) and 6.25 µg/mL (≈ 6.07 µM) in experiment [7] (setting [10]). Further, the values for the MFC in experiment [1] (setting [9]), in experiment [2] (setting [9]) and in experiment [7] (setting [9]) were 1.56 µg/mL (≈ 1.51 µM), 6.25 µg/mL (≈ 6.07 µM) and 6.25 µg/mL (≈ 6.07 µM), respectively. For the same compound, the “Replication Percent OD600” value in experiment [4] (setting [12]) was 59.2%. The “Inhibition of spore germination” value in experiment [5] (25 μg/mL) was “partially inhibit germination”. The “Germicidal” value in experiment [5] (25 μg/mL) was “Neither temsirolimus nor disulfiram were germicidal”. Moreover, in experiment [6] (setting [12]), the “Germination Percent Luciferase Signal” value is reported as 21.3%.

(Values after patent publication US11981953B2, “Method to screen compounds for antifungal activity and pharmaceutical compositions and methods to treat fungal diseases by inhibiting spore germination” (WISCONSIN ALUMNI RESEARCH FOUNDATION, priority 2018, dated 2024).)
